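Each compound was tested at five concentrations against cells in 96-well plates for 48 hours. GI50 is the concentration that inhibits growth by half. TGI is the concentration that stops growth completely.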

Assay in all cases: NCI anticancer screen, dose series, 48 h
Assay [1] has as its system DU-145 prostate.
Assay [2] has as its system HOP-62 NSCLC.
Assay [3] has as its system MDA-MB-435.
Assay [4] concerns NCI/ADR-RES ovarian.
In assay [5] the test system is OVCAR-3 ovarian.
Assay [6] has as its system SF-268 CNS.
In assay [7] the test system is SF-539 CNS.
Assay [8] deals with MOLT-4 leukemia.

On to `Cn1c(=O)c2c(ncn2CCSS(=O)(=O)O)n(C)c1=O`, for which the TGI in assay [1], in assay [2], in assay [3], in assay [4], in assay [5] and in assay [6] was > 100 µM each time. Further, the TGI in assay [7] is > 100 µM.
As to `Clc1ccc2c(c1)CC1C[N+]3=C(CCCC3)C1=C2` (stereo not given), the TGI in assay [1], in assay [2], in assay [3], in assay [8], in assay [4] and in assay [5] was > 100 µM throughout. In addition, the TGI in assay [6] is > 100 µM.
In the case of `CC(=O)O[C@H]1[C@H](OC(C)=O)[C@@H](CN=[N+]=[N-])OCO[C@@H]1CN=[N+]=[N-]`, the TGI in assay [1], in assay [2], in assay [3], in assay [8], in assay [4] and in assay [6] was > 100 µM each time. For the same compound, the TGI in assay [7] is > 100 µM.
On to `Cc1cc(C)nc(NS(=O)(=O)c2ccc(NNC(=O)c3cccc4c(NNc5ccc(S(=O)(=O)Nc6nc(C)cc(C)n6)cc5)c5ccccc5nc34)cc2)n1`, for which the TGI in assay [1] was 36.8 µM; in assay [2], 85.9 µM; in assay [3], 39.4 µM; in assay [8] it was 66.8 µM; in assay [4], > 100 µM; in assay [5] it was 66.5 µM. In addition, the values for the TGI in assay [6] and in assay [7] were 61 µM and 43.6 µM, respectively.
As to `CC1(C)O[C@H]2[C@@H]3N=C(c4ccccc4)O[C@@H]3C=C[C@H]2O1`, the TGI in assay [1], in assay [2], in assay [3], in assay [8], in assay [4] and in assay [5] was > 100 µM in each case. Further, the TGI in assay [6] was 33.4 µM; in assay [7], > 100 µM.
Turning to `COc1ccc(N2CCN(Cc3c(C(C)=O)[n+](=O)c4ccccc4n3[O-])CC2)cc1`, the TGI in assay [1], in assay [2], in assay [3], in assay [4], in assay [5] and in assay [6] was > 100 µM in each case.
Consider `CNC(=O)c1n[nH]n(Cc2ccccc2)c1=S`, for which the TGI in assay [1], in assay [2], in assay [3], in assay [8], in assay [4] and in assay [5] was > 100 µM each time.
With `CCCN1CN(c2ccccc2)C2(CCN(CCCC(=O)c3ccc(F)cc3)CC2)C1=O`, the TGI came to 11.1 µM in assay [1]; 8.66 µM in assay [2]; 23.5 µM in assay [3]; 15.5 µM in assay [8]; 17.6 µM in assay [4]; 30.3 µM in assay [5]. Moreover, the results for the TGI in assay [6] and in assay [7] were 23.8 µM and 15.5 µM, respectively.
On to `COc1cc(/C=C/c2sc3ccccc3[n+]2C)ccc1N(C)C`, for which the TGI in assay [1] was 35 µM; in assay [2], 32.8 µM; in assay [3], 22.5 µM; in assay [8] it was 30 µM; in assay [4], > 100 µM; in assay [5], 13 µM. Moreover, the results for the TGI in assay [6] and in assay [7] were 33.6 µM and 31.6 µM, respectively. The GI50 in assay [3] is 10.2 µM; in assay [8] it was 8.06 µM; in assay [4], > 100 µM; in assay [5], 3.15 µM.
Turning to `CC(=O)O[C@H]1CC[C@H]2[C@@H]3CCC4=C(C(=O)C=CC4(C)OC(C)=O)[C@H]3CC[C@]12C` (stereo not given in full), the TGI in assay [1], in assay [2], in assay [3], in assay [8], in assay [4] and in assay [5] was > 100 µM each time. For the same compound, the TGI in assay [6] and in assay [7] was > 100 µM throughout.
With `Cn1c(=O)c2nc3nnc(C#N)c(N)n3c2n(C)c1=O`, the TGI in assay [1], in assay [2], in assay [3], in assay [8], in assay [4] and in assay [5] was > 100 µM each time. Moreover, the TGI in assay [6] and in assay [7] was > 100 µM in each case.
For the compound `CC(=O)N1CC[N+](C)(CCCCN2c3ccccc3Sc3cc(N=[N+]=[N-])ccc32)CC1`, the TGI in assay [1], in assay [2], in assay [3], in assay [8], in assay [4] and in assay [5] was > 100 µM each time. The TGI in assay [6] and in assay [7] was > 100 µM each time.
In the case of `CC(C)c1ccc2c(c1)C=C1OC(=O)[C@]3(C)CCC[C@@]2(C)C13` (stereo not given in full), the TGI in assay [1], in assay [2], in assay [3], in assay [8], in assay [4] and in assay [5] was > 100 µM throughout. In addition, the TGI in assay [6] and in assay [7] was > 100 µM throughout.
For the compound `O=C(N/N=C/C=C/c1ccc([N+](=O)[O-])o1)c1ccc(Br)s1`, the TGI is > 100 µM in assay [1]; > 100 µM in assay [2]; 83.6 µM in assay [3]; > 100 µM in assay [8]; 57.4 µM in assay [4]; 41.7 µM in assay [5]. Besides, the TGI in assay [6] was found to be 98.4 µM; in assay [7], 74.5 µM.
Regarding `COCC(=O)OC1CCn2c1nc1c2C(=O)C(C)=C(NC(C)=O)C1=N` (stereo not given), the TGI was determined as 36.7 µM in assay [1]; 29.2 µM in assay [2]; 3.59 µM in assay [3]; 5.2 µM in assay [8]; 17.6 µM in assay [4]; 5.85 µM in assay [5]. Besides, the TGI amounted to 10.3 µM in assay [6] and 3.87 µM in assay [7].
As for `COc1ccc(C(=O)/C=C/c2ccc(OCC(=O)O)cc2)cc1`, the TGI in assay [1], in assay [2], in assay [3], in assay [8], in assay [4] and in assay [5] was > 100 µM each time. The TGI in assay [6] and in assay [7] was > 100 µM each time.
Consider `O=c1c[n+](-c2ccccc2)[nH]o1`, for which the TGI in assay [1], in assay [2], in assay [3], in assay [4], in assay [5] and in assay [6] was > 100 µM in each case. Besides, the TGI in assay [7] is > 100 µM.
As to `C=CCOC(=O)CCCCCCCCCCCCCCCOC(=O)c1c(CCC[C@@H](C)O[Si](C)(C)C(C)(C)C)nc(=O)n2c1CC[C@H]2CC1(CC/C=C\[C@H](CC)O[Si](C(C)C)(C(C)C)C(C)C)OCCO1`, the TGI in assay [1], in assay [2], in assay [3], in assay [4], in assay [5] and in assay [6] was > 100 µM in each case. Further, the TGI in assay [7] is > 100 µM.
Consider `N#CC(C#N)=Cc1ccc(C=C2SC3=C(SCCS3)S2)s1`, for which the TGI in assay [1] was > 100 µM; in assay [2] it was > 100 µM; in assay [3], 7.37 µM; in assay [8] it was > 100 µM; in assay [4], 42.8 µM; in assay [5], > 100 µM. The TGI in assay [6] was > 100 µM; in assay [7], 28.1 µM.
With `CC(=O)OCC1OC(n2c3c(cc(C#N)c2=S)CCCCCC3)C(OC(C)=O)C(OC(C)=O)C1OC(C)=O` (stereo not given), the TGI in assay [1], in assay [2], in assay [3], in assay [8], in assay [4] and in assay [5] was > 100 µM each time. In addition, the TGI in assay [6] and in assay [7] was > 100 µM in each case.
As for `CC(C)CCNC(=O)c1ccc(CNC(=O)/C=C/c2csc(-c3ccccc3)n2)cc1`, the TGI was > 100 µM in assay [1]; 37.4 µM in assay [2]; > 100 µM in assay [3]; > 100 µM in assay [8]; > 100 µM in assay [4]; > 100 µM in assay [5]. Further, the TGI in assay [6] and in assay [7] was > 100 µM each time.
Regarding `Cc1ccc(S(=O)C[C@@]2(C(F)F)NC(=O)NC2=O)cc1` (stereo not given in full), the TGI in assay [1], in assay [2], in assay [3], in assay [8], in assay [4] and in assay [5] was > 100 µM in each case. In assay [6], the TGI was > 100 µM.
Regarding `O=C(O)CSc1nnc(CCCCCCCCc2nnc(SCC(=O)O)o2)o1`, the TGI in assay [1], in assay [2], in assay [3], in assay [8], in assay [4] and in assay [6] was > 100 µM in each case.
For `O=C(Nc1ccccc1)Nn1c(-c2cccs2)nc2ccc(I)cc2c1=O`, the TGI was 52.3 µM in assay [1]; > 100 µM in assay [2]; 43.3 µM in assay [3]; > 100 µM in assay [4]; 31.8 µM in assay [5]; > 100 µM in assay [6]. The TGI in assay [7] was > 100 µM.
For `CCn1c(-c2ccccc2)nc2c1C(=O)c1ccccc1C2=O`, the TGI in assay [1] is > 100 µM; in assay [2], > 100 µM; in assay [3], 33.8 µM; in assay [8], 91.1 µM; in assay [4], 33.9 µM; in assay [5], 49.5 µM. Besides, the TGI in assay [7] is > 100 µM.
Regarding `COc1ccc(N=Nc2c(C)c(C#N)c(=S)n(C3OC(COC(C)=O)C(OC(C)=O)C(OC(C)=O)C3OC(C)=O)c2-c2ccccc2)cc1` (stereo not given), the TGI in assay [1] worked out at 19.6 µM; in assay [2], 26.5 µM; in assay [3], 27.4 µM; in assay [8], 47.9 µM; in assay [4], 24.4 µM; in assay [5], 31.1 µM.
Consider `CN(C)CS/C(N)=N\C(O)C(Cl)(Cl)Cl` (stereo not given), for which the TGI in assay [1], in assay [2], in assay [3], in assay [8], in assay [4] and in assay [5] was > 100 µM in each case. The TGI in assay [6] is > 100 µM.
For `O=c1oc2cc(O)ccc2cc1-c1nc2ccccc2s1`, the TGI in assay [1] is > 100 µM; in assay [2], 41.6 µM; in assay [3], 90.1 µM; in assay [8] it was 17.4 µM; in assay [4], 44.7 µM; in assay [5] it was 45.6 µM. The TGI in assay [7] was 46.6 µM.
With `CN(C)CCCNC(=O)c1cc(NC(=O)c2cc(NC(=O)[C@H]3C[C@@H]3C(=O)Nc3cc(C(=O)Nc4cc(C(=O)NCCCN(C)C)n(C)c4)n(C)c3)cn2C)cn1C`, the TGI in assay [1], in assay [2], in assay [3], in assay [8], in assay [4] and in assay [6] was > 100 µM each time. Moreover, the TGI in assay [7] is > 100 µM.
In the case of `CCCC(=O)/C=C/S/C=C/C(=O)CCC`, the TGI in assay [1] is 27.1 µM; in assay [2], 42.6 µM; in assay [3], 18.6 µM; in assay [4], 9.05 µM; in assay [5], 18.7 µM; in assay [6], > 100 µM. The TGI in assay [7] is 27 µM.
On to `NC1=NN(c2ccccc2)C2(c3ccncc3C(=O)O)C1C(N)=NN2c1ccccc1` (stereo not given), for which the TGI in assay [1], in assay [3], in assay [8], in assay [4], in assay [5] and in assay [6] was > 100 µM in each case. The TGI in assay [7] was > 100 µM.
For the compound `COC(=O)c1cc(-c2ccc(-c3ccc(O)cc3)cc2)cc(-c2ccc(-c3ccc(O)cc3)cc2)c1`, the TGI in assay [2] came out at 27.7 µM; in assay [3], 24.9 µM; in assay [8], 22.1 µM; in assay [4], 30.1 µM; in assay [5], 25.6 µM; in assay [6], 17.8 µM. In assay [7], the TGI was found to be 19.8 µM.
In the case of `NC(N)=NS(=O)(=O)c1ccc(Nc2c3ccccc3nc3c(C(=O)NC(CO)(CO)CO)cccc23)cc1`, the TGI is > 100 µM in assay [1]; 87.4 µM in assay [2]; > 100 µM in assay [3]; > 100 µM in assay [8]; > 100 µM in assay [4]; > 100 µM in assay [5]. In addition, the TGI in assay [6] was > 100 µM.

Values taken from PubChem BioAssay (NCI).
